# Columns and labels:
# Assay in all cases: KINOMEscan competition binding
# Details in all cases: compound 10.0 µM
# [1] = biological target: AXL (human) (UniProt P30530)
# [2] = biological target: CAMK1G (human) (UniProt Q96NX5)
# [3] = biological target: CAMK2D (human) (UniProt Q13557)
# [4] = biological target: CDK5 (human) (UniProt Q00535)
# [5] = biological target: CHEK1 (human) (UniProt O14757)
# [6] = biological target: CHUK (human) (UniProt O15111)
# [7] = biological target: CSF1R (human) (UniProt P07333)
# [8] = biological target: CSNK2A1 (human) (UniProt P68400)
# [9] = biological target: DCLK3 (human) (UniProt Q9C098)
# [10] = biological target: DMPK (human) (UniProt Q09013)
# [11] = biological target: EPHA1 (human) (UniProt P21709)
# [12] = biological target: FGFR1 (human) (UniProt P11362)
# [13] = biological target: FLT1 (human) (UniProt P17948)
# [14] = biological target: GSK3B (human) (UniProt P49841)
# [15] = biological target: INSRR (human) (UniProt P14616)
# [16] = biological target: ITK (human) (UniProt Q08881)
# [17] = biological target: LYN (human) (UniProt P07948)
# [18] = biological target: MAP2K1 (human) (UniProt Q02750)
# [19] = biological target: MAP2K2 (human) (UniProt P36507)
# [20] = biological target: MAP3K12 (human) (UniProt Q12852)
# [21] = biological target: MAPK12 (human) (UniProt P53778)
# [22] = biological target: MAPKAPK2 (human) (UniProt P49137)
# [23] = biological target: MARK4 (human) (UniProt Q96L34)
# [24] = biological target: NEK5 (human) (UniProt Q6P3R8)
# [25] = biological target: NTRK2 (human) (UniProt Q16620)
# [26] = biological target: PKN1 (human) (UniProt Q16512)
# [27] = biological target: PKN2 (human) (UniProt Q16513)
# [28] = biological target: PLK4 (human) (UniProt O00444)
# [29] = biological target: PRKCH (human) (UniProt P24723)
# [30] = biological target: RIPK1 (human) (UniProt Q13546)
# [31] = biological target: ROCK2 (human) (UniProt O75116)
# [32] = biological target: RPS6KA4 KD2 (human) (UniProt O75676)
# [33] = biological target: RPS6KA6 KD1 (human) (UniProt Q9UK32)
# [34] = biological target: SLK (human) (UniProt Q9H2G2)
# [35] = biological target: SRMS (human) (UniProt Q9H3Y6)
# [36] = biological target: SRPK3 (human) (UniProt Q9UPE1)
# [37] = biological target: SYK (human) (UniProt P43405)
# [38] = biological target: TSSK1B (human) (UniProt Q9BXA7)
# [39] = biological target: TTK (human) (UniProt P33981)
# [40] = biological target: ULK3 (human) (UniProt Q6PHR2)
# Chain of PKN2 (human) (Q16513 whole entry, looked up): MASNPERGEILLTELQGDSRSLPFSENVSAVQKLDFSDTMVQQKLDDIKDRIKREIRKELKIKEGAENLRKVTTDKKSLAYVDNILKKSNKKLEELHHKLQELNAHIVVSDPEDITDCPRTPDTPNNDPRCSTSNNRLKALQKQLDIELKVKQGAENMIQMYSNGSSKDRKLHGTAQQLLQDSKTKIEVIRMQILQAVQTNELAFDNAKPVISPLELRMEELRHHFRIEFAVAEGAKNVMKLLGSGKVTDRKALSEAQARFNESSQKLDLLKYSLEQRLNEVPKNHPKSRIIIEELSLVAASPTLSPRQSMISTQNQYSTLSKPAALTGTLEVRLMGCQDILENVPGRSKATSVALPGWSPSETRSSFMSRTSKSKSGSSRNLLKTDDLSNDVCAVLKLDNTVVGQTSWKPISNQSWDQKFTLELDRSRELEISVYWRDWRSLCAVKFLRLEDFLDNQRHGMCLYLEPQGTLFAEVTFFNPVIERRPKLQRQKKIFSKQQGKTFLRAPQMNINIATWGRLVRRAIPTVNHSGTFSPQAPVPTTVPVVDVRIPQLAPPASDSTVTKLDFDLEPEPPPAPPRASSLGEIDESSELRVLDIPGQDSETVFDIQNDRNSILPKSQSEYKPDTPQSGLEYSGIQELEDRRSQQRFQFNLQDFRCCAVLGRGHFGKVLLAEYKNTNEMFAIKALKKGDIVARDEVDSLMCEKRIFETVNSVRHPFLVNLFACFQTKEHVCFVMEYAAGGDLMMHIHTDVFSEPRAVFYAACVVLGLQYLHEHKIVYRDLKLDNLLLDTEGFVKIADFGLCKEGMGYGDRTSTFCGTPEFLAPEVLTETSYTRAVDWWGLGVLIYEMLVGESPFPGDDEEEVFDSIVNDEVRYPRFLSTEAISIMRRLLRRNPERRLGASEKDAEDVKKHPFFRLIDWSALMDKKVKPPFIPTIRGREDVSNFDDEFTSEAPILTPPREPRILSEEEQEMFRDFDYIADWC
# Chain of MAP3K12 (human) (Q12852 whole entry, looked up): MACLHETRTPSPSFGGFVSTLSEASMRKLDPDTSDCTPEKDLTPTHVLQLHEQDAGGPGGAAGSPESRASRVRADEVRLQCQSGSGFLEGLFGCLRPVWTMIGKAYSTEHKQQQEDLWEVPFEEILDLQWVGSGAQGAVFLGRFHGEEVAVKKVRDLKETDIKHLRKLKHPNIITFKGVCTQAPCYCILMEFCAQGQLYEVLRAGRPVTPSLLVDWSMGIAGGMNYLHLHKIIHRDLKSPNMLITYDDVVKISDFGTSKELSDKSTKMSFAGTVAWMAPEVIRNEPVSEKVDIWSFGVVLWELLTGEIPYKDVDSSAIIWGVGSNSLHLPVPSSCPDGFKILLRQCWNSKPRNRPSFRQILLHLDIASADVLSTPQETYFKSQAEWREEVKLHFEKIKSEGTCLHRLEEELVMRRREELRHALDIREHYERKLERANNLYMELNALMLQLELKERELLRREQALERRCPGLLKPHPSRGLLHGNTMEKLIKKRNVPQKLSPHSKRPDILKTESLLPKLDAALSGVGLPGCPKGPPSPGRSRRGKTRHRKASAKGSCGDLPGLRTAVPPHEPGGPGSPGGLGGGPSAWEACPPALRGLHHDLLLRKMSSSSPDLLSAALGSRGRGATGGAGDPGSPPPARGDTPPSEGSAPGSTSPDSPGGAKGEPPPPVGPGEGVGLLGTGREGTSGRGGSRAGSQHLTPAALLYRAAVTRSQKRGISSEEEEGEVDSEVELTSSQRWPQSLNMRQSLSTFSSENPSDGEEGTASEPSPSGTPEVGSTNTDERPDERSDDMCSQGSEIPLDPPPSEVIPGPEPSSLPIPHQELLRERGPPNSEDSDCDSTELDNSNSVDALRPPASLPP
# Chain of ITK (human) (Q08881 whole entry, looked up): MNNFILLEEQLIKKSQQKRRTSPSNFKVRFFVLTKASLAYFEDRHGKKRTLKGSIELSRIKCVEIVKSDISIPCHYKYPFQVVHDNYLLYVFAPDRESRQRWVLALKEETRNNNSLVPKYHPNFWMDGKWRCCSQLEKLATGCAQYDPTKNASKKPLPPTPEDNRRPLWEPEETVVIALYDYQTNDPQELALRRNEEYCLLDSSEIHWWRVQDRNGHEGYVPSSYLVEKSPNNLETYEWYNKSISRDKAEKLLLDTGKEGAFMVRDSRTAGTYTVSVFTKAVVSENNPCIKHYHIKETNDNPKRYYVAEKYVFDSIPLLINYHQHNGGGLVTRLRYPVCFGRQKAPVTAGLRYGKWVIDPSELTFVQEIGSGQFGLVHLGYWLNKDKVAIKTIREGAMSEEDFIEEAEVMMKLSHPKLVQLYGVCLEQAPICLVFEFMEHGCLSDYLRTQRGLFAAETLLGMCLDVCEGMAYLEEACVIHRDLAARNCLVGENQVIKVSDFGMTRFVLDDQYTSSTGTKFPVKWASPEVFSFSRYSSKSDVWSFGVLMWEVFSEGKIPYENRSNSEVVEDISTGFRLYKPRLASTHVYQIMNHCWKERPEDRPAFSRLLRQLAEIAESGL
# Chain of MAP2K1 (human) (Q02750 whole entry, looked up): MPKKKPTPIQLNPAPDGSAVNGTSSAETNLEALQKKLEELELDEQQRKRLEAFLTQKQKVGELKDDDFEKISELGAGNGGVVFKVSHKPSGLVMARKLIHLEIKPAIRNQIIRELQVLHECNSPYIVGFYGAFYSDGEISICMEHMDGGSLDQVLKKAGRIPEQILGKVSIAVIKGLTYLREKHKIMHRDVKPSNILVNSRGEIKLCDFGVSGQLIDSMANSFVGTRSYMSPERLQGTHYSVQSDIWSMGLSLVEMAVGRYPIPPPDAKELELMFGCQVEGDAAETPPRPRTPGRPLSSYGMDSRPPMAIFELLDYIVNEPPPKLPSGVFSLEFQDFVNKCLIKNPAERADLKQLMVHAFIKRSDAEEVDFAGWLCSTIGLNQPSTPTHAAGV
# Chain of TTK (human) (P33981 whole entry, looked up): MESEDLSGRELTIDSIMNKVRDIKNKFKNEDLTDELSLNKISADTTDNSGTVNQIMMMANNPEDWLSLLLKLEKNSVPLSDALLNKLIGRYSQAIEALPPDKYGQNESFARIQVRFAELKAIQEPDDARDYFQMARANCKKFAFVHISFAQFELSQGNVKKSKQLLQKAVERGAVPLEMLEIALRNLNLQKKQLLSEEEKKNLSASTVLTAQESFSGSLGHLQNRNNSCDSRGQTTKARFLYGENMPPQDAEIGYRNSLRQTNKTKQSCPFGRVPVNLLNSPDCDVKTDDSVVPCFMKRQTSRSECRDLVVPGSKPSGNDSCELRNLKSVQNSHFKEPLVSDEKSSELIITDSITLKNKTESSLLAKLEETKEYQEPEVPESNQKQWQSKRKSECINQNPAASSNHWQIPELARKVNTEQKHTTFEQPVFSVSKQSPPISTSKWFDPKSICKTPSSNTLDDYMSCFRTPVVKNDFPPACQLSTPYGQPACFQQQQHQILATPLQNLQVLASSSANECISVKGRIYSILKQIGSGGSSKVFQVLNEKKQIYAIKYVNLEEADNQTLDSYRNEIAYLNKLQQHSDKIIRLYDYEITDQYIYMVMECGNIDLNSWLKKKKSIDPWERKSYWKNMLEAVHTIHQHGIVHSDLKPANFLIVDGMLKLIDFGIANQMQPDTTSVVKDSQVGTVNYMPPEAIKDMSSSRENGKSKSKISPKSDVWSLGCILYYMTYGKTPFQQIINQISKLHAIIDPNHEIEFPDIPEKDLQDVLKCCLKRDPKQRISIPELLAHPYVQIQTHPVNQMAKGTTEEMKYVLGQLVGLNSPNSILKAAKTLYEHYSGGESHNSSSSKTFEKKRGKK
# Chain of PLK4 (human) (O00444 whole entry, looked up): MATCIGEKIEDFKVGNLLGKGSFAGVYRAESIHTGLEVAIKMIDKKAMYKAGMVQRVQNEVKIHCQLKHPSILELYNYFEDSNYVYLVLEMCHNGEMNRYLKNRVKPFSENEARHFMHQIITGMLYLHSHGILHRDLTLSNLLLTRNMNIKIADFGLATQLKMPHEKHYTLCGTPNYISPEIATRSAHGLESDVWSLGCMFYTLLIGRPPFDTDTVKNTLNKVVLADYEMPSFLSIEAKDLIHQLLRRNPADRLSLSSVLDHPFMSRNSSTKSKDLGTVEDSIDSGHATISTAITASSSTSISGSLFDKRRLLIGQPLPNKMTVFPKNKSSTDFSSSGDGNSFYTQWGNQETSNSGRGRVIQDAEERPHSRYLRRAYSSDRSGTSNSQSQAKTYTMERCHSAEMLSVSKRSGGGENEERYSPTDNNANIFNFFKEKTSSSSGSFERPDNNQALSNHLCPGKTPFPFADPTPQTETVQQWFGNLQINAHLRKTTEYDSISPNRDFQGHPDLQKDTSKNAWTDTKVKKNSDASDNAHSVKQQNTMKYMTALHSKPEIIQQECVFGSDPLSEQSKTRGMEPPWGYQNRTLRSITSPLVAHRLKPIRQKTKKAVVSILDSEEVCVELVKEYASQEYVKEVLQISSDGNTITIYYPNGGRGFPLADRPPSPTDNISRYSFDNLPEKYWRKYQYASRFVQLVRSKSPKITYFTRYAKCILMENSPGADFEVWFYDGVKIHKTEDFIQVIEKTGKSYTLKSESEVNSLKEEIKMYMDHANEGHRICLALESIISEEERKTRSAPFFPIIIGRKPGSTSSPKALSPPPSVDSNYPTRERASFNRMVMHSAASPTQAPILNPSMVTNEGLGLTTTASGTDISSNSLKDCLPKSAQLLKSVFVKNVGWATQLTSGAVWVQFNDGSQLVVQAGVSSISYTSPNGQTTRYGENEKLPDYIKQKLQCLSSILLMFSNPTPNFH
# Chain of CSNK2A1 (human) (P68400 whole entry, looked up): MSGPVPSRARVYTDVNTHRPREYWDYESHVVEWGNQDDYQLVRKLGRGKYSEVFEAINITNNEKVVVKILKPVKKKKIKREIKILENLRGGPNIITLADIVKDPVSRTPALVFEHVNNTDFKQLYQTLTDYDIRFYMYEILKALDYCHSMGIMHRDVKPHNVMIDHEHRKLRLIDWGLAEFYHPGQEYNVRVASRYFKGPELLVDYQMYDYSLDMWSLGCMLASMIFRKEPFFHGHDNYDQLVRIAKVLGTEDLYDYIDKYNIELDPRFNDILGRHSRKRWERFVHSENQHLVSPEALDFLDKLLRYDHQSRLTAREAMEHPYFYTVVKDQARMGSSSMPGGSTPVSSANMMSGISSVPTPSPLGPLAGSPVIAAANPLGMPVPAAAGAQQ
Compound,"kinase still bound, per cent of control [1] [%]","kinase still bound, per cent of control [2] [%]","kinase still bound, per cent of control [3] [%]","kinase still bound, per cent of control [4] [%]","kinase still bound, per cent of control [5] [%]","kinase still bound, per cent of control [6] [%]","kinase still bound, per cent of control [7] [%]","kinase still bound, per cent of control [8] [%]","kinase still bound, per cent of control [9] [%]","kinase still bound, per cent of control [10] [%]","kinase still bound, per cent of control [11] [%]","kinase still bound, per cent of control [12] [%]","kinase still bound, per cent of control [13] [%]","kinase still bound, per cent of control [14] [%]","kinase still bound, per cent of control [15] [%]","kinase still bound, per cent of control [16] [%]","kinase still bound, per cent of control [17] [%]","kinase still bound, per cent of control [18] [%]","kinase still bound, per cent of control [19] [%]","kinase still bound, per cent of control [20] [%]",other results
Cc1ccc2nc(NCCN)c3ncc(C)n3c2c1,100,88,100,100,91,86,16,33,76,100,79,100,98,68,100,100,100,100,77,84,"kinase still bound, per cent of control [21]: 100%; kinase still bound, per cent of control [22]: 100%; kinase still bound, per cent of control [23]: 100%; kinase still bound, per cent of control [24]: 100%; kinase still bound, per cent of control [25]: 89%; kinase still bound, per cent of control [26]: 92%; kinase still bound, per cent of control [27]: 71%; kinase still bound, per cent of control [28]: 90%; kinase still bound, per cent of control [29]: 94%; kinase still bound, per cent of control [30]: 100%; kinase still bound, per cent of control [31]: 100%; kinase still bound, per cent of control [32]: 15%; kinase still bound, per cent of control [33]: 88%; kinase still bound, per cent of control [34]: 100%; kinase still bound, per cent of control [35]: 90%; kinase still bound, per cent of control [36]: 100%; kinase still bound, per cent of control [37]: 100%; kinase still bound, per cent of control [38]: 100%; kinase still bound, per cent of control [39]: 100%; kinase still bound, per cent of control [40]: 76%"
COc1cc(C(=O)NC2CCN(C)CC2)ccc1Nc1ncc2c(n1)N(C1CCCC1)CCC(=O)N2C(C)C,100,100,100,100,100,100,100,100,100,100,100,100,100,100,100,100,100,100,100,100,"kinase still bound, per cent of control [21]: 100%; kinase still bound, per cent of control [22]: 100%; kinase still bound, per cent of control [23]: 0%; kinase still bound, per cent of control [24]: 100%; kinase still bound, per cent of control [25]: 100%; kinase still bound, per cent of control [26]: 100%; kinase still bound, per cent of control [27]: 100%; kinase still bound, per cent of control [28]: 100%; kinase still bound, per cent of control [29]: 100%; kinase still bound, per cent of control [30]: 100%; kinase still bound, per cent of control [31]: 100%; kinase still bound, per cent of control [32]: 100%; kinase still bound, per cent of control [33]: 100%; kinase still bound, per cent of control [34]: 100%; kinase still bound, per cent of control [35]: 100%; kinase still bound, per cent of control [36]: 100%; kinase still bound, per cent of control [37]: 100%; kinase still bound, per cent of control [38]: 100%; kinase still bound, per cent of control [39]: 100%; kinase still bound, per cent of control [40]: 100%"

# — the kinase profiling compilation of Christmann-Franck et al. (2016)
